A value given as a limit tells only on which side of the number the result lay.

Take `C[C@]1(CN2CCN(S(=O)(=O)CCCc3ccc(Cl)cc3)CC2)Cn2cc([N+](=O)[O-])nc2O1`: the melting point (usually the temperature of the solid-liquid transition) fell in the range of 150 to 151 °C.

Regarding `N#CNC(=Nc1ccncc1)NCC(O)COc1ccc(Cl)cc1` (centres undefined), the melting point was 149 to 151 °C. In the case of `CCC(=O)N1C(=O)C(=O)c2cc(Cl)ccc21` it was 160 to 162 °C. In the case of `O=C1c2ccccc2C(=O)N1CCc1nnc2n1-c1ccc(Cl)cc1C(c1ccccc1)=NC2` it was 133 to 134 °C; in that of `O=C(O)c1ccc(-c2ccc3cc(OCc4ccccc4)c(C45CC6CC(CC(C6)C4)C5)cc3c2)cc1`, 305 to 310 °C; in that of `CCCCCCCCCCCCCCCCS(=O)(=O)N[C@H]1CCCNC(=O)C1`, 100 to 101 °C. On to `Cc1nnsc1C(=O)Nc1ccc(-n2nc(C3CC3)cc2C2CC2)cc1`, for which the melting point lay within 117 to 120 °C.

As for `CCN(CC)C(=O)C1CCCN(C(=O)CN(C(=O)CNC(=O)Nc2cccc(C)c2)c2ccccc2)C1` (racemic), the melting point came out at 156 °C. In the case of `O=CNCc1ncc(-c2ccccc2)o1` it was 225 to 228 °C. In the case of `CCOC(=O)C1CCc2cc(C(=O)c3ccccc3)c(O)cc21` (centres undefined) it was 83 to 84 °C; in that of `CCOC(=O)CNC(=O)N(C(=O)NCC(=O)OCC)c1ccc(C(=O)/C=C/c2cc(OC)c(OC)c(-c3cccs3)c2)cc1`, 83 to 86 °C; in that of `O=c1c2ccccc2c(-c2ccccc2)cn1CCCCl`, 138 °C. The result for `CCCCOc1ccc(C=C(C#N)S(C)(=O)=O)cc1` reads 96.5 to 97 °C. Molecule `COc1cc(OCc2ccccn2)ccc1/C=C/c1cc(/C=C/c2cccc3cc[nH]c23)n[nH]1` yielded a melting point of 99 to 110 °C.

For `C(C#CSCc1ccccc1)#CSCc1ccccc1`, the melting point lay within 38 to 39 °C. The result for `Cc1nc(-n2ccc(OCc3ccccc3)cc2=O)sc1C(=O)NCc1cccnc1` reads 208 to 209 °C; that for `Nc1ccc2c(c1)C(CN1CCCCC1)CO2` (centres undefined), 144 to 150 °C. The result for `N#Cc1ccccc1Cn1ccc(OCc2ccc(F)cc2F)c(Br)c1=O` reads 194 to 197 °C.

`COC1=C(OC)C(=O)C2=C(CC(CCCCCCCCN3CCN(Cc4ccccc4)CC3)(c3ccccc3)C2)C1=O`: the melting point lay in the range of 78 to 80 °C. `CC(C)(C)OC(=O)N1C(=O)[C@H](O)[C@@H]1C1CCCCC1` yielded a melting point of 121 to 122 °C. The result for `Cn1c2ccccc2c(=O)c2c(-c3ccccc3NC(=O)C(C)(C)C)cccc21` reads 160 to 162 °C; that for `C=C(C)C(=O)Nc1ccc(Nc2ccccc2)cc1`, 101 to 103 °C; that for `CCOC(=O)c1sc2ccc(Br)cc2c1C`, 87 to 88 °C.

`Cc1nc(NC(=O)c2ccncc2)sc1C(=O)NCc1ccccc1` showed a melting point of 171 to 172 °C. The result for `Cc1cc(C(=O)N(C2CCCCC2)C2CCCC2)ccc1Br` reads 125 to 127 °C; that for `CCOC(=O)C(=CNc1nnc(C)s1)C(=O)c1cc(F)c(Cl)nc1Cl`, 142 to 152 °C; that for `CCOC(=O)c1ccc(OC2CCN(C(=O)OC(C)(C)C)CC2)cc1`, 76 to 78 °C. The result for `COc1cccc(CSCCNC(=O)c2c(Cl)cccc2OC)c1` reads 58 to 59 °C; that for `N#Cc1cc(F)ccc1N1CCNCC1`, 83 to 83.5 °C; that for `COC(=O)C1=C(C)NC(C)=C(S(=O)(=O)c2ccc(OC)cc2)C1c1ccccc1Cl` (centres undefined), 176 to 178 °C. The result for `OCC(CO)Cc1ccccc1` reads 64 to 65 °C; that for `C=CCc1c(O)ccc2ccc(OCC(=O)OC)cc12`, 128 to 130 °C; that for `O=C1c2ccccc2C(=O)N1OCc1ccn(C(c2ccccc2)(c2ccccc2)c2ccccc2)n1`, 177 to 179 °C. `COP(=O)(OC)C(c1ccc(F)cc1)(c1ccccc1F)c1ccccc1Cl` (centres undefined) came in with a melting point of 132 °C. The result for `O=C(c1cc2cc3[nH]c(=O)oc3cc2[nH]1)N1CCC(Cc2ccc(F)cc2)CC1` reads 244 to 247 °C.

Consider `Cc1cc(C(C)(C)C)c(Cl)c(C)c1SSc1c(C)cc(C(C)(C)C)c(Cl)c1C`, for which the melting point is 128 to 129 °C. In the case of `O=C(NCc1ccccn1)Nc1cc(N2C(=O)CCc3ccccc32)ccn1` it was 194 to 195 °C; in that of `C=C(F)C(=O)Oc1c(Br)cc(C#N)cc1Br`, 135 to 138 °C. In the case of `O=c1[nH]c2cc(Cl)ccc2n(CCO)c1=O` it was 295 °C; in that of `C=CCCC(O)C(C)(C)N1COC(C)=C(c2ccccc2)C1=O` (centres undefined), 74 to 75 °C; in that of `CC1(C)CCC(C)(C)c2cc(Br)c(O)cc21`, 90 to 94 °C. In the case of `COCC1CCCN1S(=O)(=O)c1ccc2c(c1)C1(OCCCO1)C1=NCCCN12` (centres undefined) it was 129 to 130 °C. Turning to `FC(F)(F)c1cc(N(Cc2ccsc2)Cc2ccccn2)cc(C(F)(F)F)c1Br`, the melting point lay in the range of 58 to 59 °C. In the case of `COCCOc1cc2ncnc(Oc3ccc(Cl)cc3F)c2cc1OC` it was 167 to 168 °C; in that of `CNCCNC(=O)c1nc(Cl)c(N)nc1N`, 142 to 143 °C. The result for `O=[N+]([O-])c1cnn(-c2c(Cl)cc(C(F)(F)F)cc2Cl)c1Cl` reads 80 to 84 °C; that for `O=C(Oc1ccc(F)cc1Cl)Oc1ccc(F)cc1Cl`, 91 to 92 °C. In the case of `COc1ccccc1NC(=O)NC1N=C(c2ccc(Cl)cc2)c2c(sc(C)c2C)-n2c(C)nnc21` (centres undefined) it was 261 to 262 °C; in that of `CC(=O)NCCC1CCc2ccc3nc(CCc4ccccc4)oc3c21` (centres undefined), 85 to 87 °C; in that of `OC(Cn1cncn1)(c1ccc(Cl)cc1)C1(F)CC1` (centres undefined), 128 °C. For `CCCCCCC(NS(=O)(=O)c1ccc(Cl)cc1)C(=O)Nc1ccc(CC(=O)OCC)cc1` (racemic), the melting point is 110 to 112 °C. Consider `CC(C)c1cc(-c2ccc(F)cc2)n(-c2ncccn2)n1`, for which the melting point was 102 to 103 °C. The result for `NCc1c(Nc2ccccc2)cccc1Oc1ccccc1` reads 113 to 116 °C.

`COc1ccc(-c2nc(-c3ccccc3)c(N(c3ccccc3)c3ccccc3)s2)cc1` had a melting point of 152 to 155 °C. In the case of `CCCOC(=O)c1cc(-n2c(OC)nc(C(F)(F)F)c(F)c2=O)c(F)cc1Cl` it was 76 to 78 °C; in that of `O=C(O)CCC(=O)CC(=O)c1cccnc1`, 156 to 158 °C; in that of `CCCCCN1C(=O)C2(COc3cc4c(cc32)CCO4)c2ccccc21` (centres undefined), 128 to 129 °C. In the case of `CCSc1c(C=NOC)c(=O)n(C)c(=O)n1C` it was 74 to 75 °C; in that of `O=C(CCc1cnn2c(=O)[nH]cnc12)NCCCN1CCCC1=O`, 180 to 181 °C; in that of `CN(c1cnc(-c2ccccc2)c(-c2ccccc2)n1)C1CCc2c(OCC(=O)O)cccc21` (centres undefined), 182 to 184 °C. Molecule `CN(N=Cc1ccc(Br)cc1)C(=O)c1[nH]c2ccccc2c1-c1ccccc1` came in with a melting point of 210 to 212 °C. In the case of `COCC(COC)Oc1ccc(C#CC2(O)CN3CCC2CC3)cc1` (centres undefined) it was 125 to 127 °C; in that of `O=C(O)c1cc(-c2ccc3occc3c2)nn(Cc2ccc(F)cc2)c1=O`, 207 to 210 °C; in that of `COc1cc(C=O)cc(C#N)c1O`, 180 °C. The result for `CCCCCCCCCCCCSCC(O)CO` (centres undefined) reads 53 to 54 °C; that for `CC(=O)OC1CSC(Oc2cnccc2C)C(OC(C)=O)C1OC(C)=O` (centres undefined), 150 °C; that for `O=C(O)CCNC(=O)[C@H](Cc1ccccc1)OP(=O)(O)CCCCc1ccccc1`, 78.5 to 80 °C. The result for `CC(C)=CCN1CCc2c(sc(N)c2C(=O)c2ccc(I)cc2)C1` reads 148 to 150 °C; that for `Cc1ccc(NP(N)(N)=O)c([N+](=O)[O-])c1`, above 180 °C. `Cc1cc(NCC(C)C)c2[nH]nc(-c3ccccc3)c2n1` yielded a melting point of 187 to 190 °C. In the case of `Brc1cn2cc(-c3ccccc3)nc2c(Br)n1` it was 254 °C; in that of `Cc1cccc(Cl)c1OC1CN(C(=O)N(C)C)C1`, 46 to 47 °C; in that of `CCOC(=O)NNc1cc(C)c(-c2cccc(C#N)c2)nn1`, 189 to 190 °C. In the case of `CC(C)C(=O)c1ccc(F)cc1O` it was 160 °C.

With `CCN(CC)CCCC(=O)O`, the melting point was 45 to 47 °C. In the case of `Brc1ccc(-c2nc3cc(Br)ccc3s2)cc1` it was 162 to 163 °C; in that of `O=C(Nc1ccc(C(=O)N2CCc3cn[nH]c3-c3sccc32)cc1)c1ccc(F)cc1Cl`, 258 to 266 °C; in that of `COC(=O)c1cc(-c2ccc(SC)cc2)nn(CC=Cc2ccc(Cl)cc2)c1=O`, 123 to 126 °C. In the case of `O=C(O)c1cccc(COc2ccccc2Cl)c1COc1ccccc1Cl` it was 107 to 109 °C; in that of `CSc1oc2ccc(Br)cc2c(=O)c1-c1ccc(Cl)cc1`, 205 to 206 °C.

`CC(C(=O)N(c1ccccc1)c1ccccc1)N1C(=O)c2ccccc2C1=O` (racemic) yielded a melting point of 89 °C. The result for `CC(=O)c1cc([N+](=O)[O-])c(N)c2c1CCCC2` reads 170 to 172 °C. Take `C=C(C)Cn1c(=O)n(C)c(=O)c2c(SCCO)n(Cc3cccc4ccccc34)nc21`: the melting point lay in the range of 135 to 137 °C. Turning to `CCC(O)(c1cc(F)cc(Sc2ccc3c(-c4ccoc4)cc(C#N)cc3c2)c1)c1nccs1` (centres undefined), the melting point lay within 120 to 122 °C. In the case of `COC(=O)c1ccc(S(C)(=O)=O)nc1OC` it was 88 to 90 °C. In the case of `COC(=O)C1Sc2cc(Cl)ccc2OCC1=O` (centres undefined) it was 92 to 94 °C; in that of `CCCCCC[C@@H](F)COc1cnc(-c2ccc(CCCCC)c(F)c2F)nc1`, 74.7 °C.

Take `Cc1cc(C)c(C)c(COc2cccc(-c3c(-c4ccccc4)coc3C(=O)NNC(=O)c3ccc(O)c(C#N)c3)c2)c1C`: the melting point was 207 to 209 °C.

On to `O=C(Nc1cc(S(=O)(=O)NC(CO)CO)sc1Cl)c1cnn2c(C(F)F)cc(-c3ccc(C(F)(F)F)cc3)nc12`, for which the melting point was determined as 241 °C.

Values taken from a melting point compilation (Tetko et al.; mined from patent text by program, amines drawn as free bases though some values may be those of a salt).
